Patent US9163021B2, “Pyrrolo[3,2-c]pyridine tropomyosin-related kinase inhibitors” (Pfizer Limited, priority 2012, dated 2015)

What follows are compounds tested against TRKA (Homo sapiens (Human), UniProt P04629) (assay: Isolated TRK enzyme assay (HTRF KinEASE-TK), PV3144 TrkA enzyme assay). Conditions: arithmetic mean where more than one reading.
Type: biochemical
Protocol: Isolated TRK Enzyme assays use the HTRF KinEASE-TK kit (Cisbio Cat#62TK0PEJ) with recombinant His-tagged cytoplasmic domains of each TRK receptor sourced from Invitrogen (see table below). This activity-assay measures the phosphorylation of tyrosine residues within a substrate from the HTRF kit which has been validated by Cisbio for a variety of tyrosine kinases including the TRK receptors.
0.5 mM stock solutions of test compounds are prepared and serially diluted in 100% DMSO. A standard curve using the compound of Example 135 disclosed in WO2005/116035 of 150 uM is also prepared on each test plate. High percentage effect (HPE) is defined by 150 uM (using the compound of Example 135 as disclosed in WO2005/116035) and 0% effect (ZPE) is defined by 100% DMSO. Greiner low volume black plates containing 0.2 ul of serially diluted compound, standard and HPE/ZPE are created using the Bravo nanoliter dispenser.
1× enzyme buffer is prepared from 5× Enzymatic Buffer from the Cisbio KinEASE TK kit using MilliQ water. The buffer is then supplemented with 10 mM MgCI and 2 mM DTT (both from Sigma). In the case of TRKB, the buffer is also supplemented with 125 nM Supplement Enzymatic Buffer (SEB) from the Cisbio kit.
2× FAC of enzyme and 2× FAC ATP diluted in 1× complete enzyme buffer is incubated at room temperature for 20 minutes to preactivate the enzyme. Following this preactivation step, 5 ul/well of enzyme+ATP mix is added using a Multidrop Micro to the assay plate, spotted with 0.2 ul 100% DMSO compound. This is left for 20 mins at room temperature before adding 5 ul of 2 uM TK-substrate-Biotin (from the Cisbio kit) diluted in 1× enzyme buffer (1 uM FAC) using the Multidrop Micro. The reaction is incubated at room temperature for the optimized assay reaction time (see table). The reaction is stopped by adding 10 ul/well HTRF Detection Buffer containing 0.25 uM Streptavidin-XL665 (0.125 uM FAC) and 1:200 TK Antibody-Cryptate using a Multidrop.
After the Detection Reagent addition, plates are covered and incubated at room temperature for 60 minutes. HTRF signal is read using an Envision reader, measured as a ratio of emissions at two different wavelengths, 620 nm and 665 nm. […] Test compound data are expressed as percentage inhibition defined by HPE and ZPE values for each plate. Percentage inhibition in the presence of test compound is plotted against compound concentration on a log scale to determine an IC50 from the resultant sigmoid curve.
Where more than one reading was taken, the arithmetic mean is presented.

TRKA, sequence (P04629 441-796): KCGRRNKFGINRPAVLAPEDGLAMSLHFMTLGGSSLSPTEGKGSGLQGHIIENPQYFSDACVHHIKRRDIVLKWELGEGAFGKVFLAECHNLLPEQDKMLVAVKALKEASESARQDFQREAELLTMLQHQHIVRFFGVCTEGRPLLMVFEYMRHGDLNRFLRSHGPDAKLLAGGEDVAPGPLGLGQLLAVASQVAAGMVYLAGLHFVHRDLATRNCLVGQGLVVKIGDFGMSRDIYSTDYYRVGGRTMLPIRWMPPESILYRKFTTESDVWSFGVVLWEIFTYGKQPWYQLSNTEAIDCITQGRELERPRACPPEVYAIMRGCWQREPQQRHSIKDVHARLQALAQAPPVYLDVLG

Row | SMILES | IC50
1 | Cc1cc(C(F)(F)F)nn1CC(=O)Nc1cncc(C(=O)c2cn(C(C)CO)c3c(F)cncc23)c1 (single isomer, unassigned) [Example 228, N-(5-{[7-fluoro-1-(1-hydroxypropan-2-yl)-1H-pyrrolo[3,2-c]pyridin-3-yl]carbonyl}pyridin-3-yl)-2-[5-methyl-3-(trifluoromethyl)-1H-pyrazol-1-yl]acetamide] | 18.5 nM
2 | CC(CO)n1cc(C(=O)c2cc(NC(=O)Cc3cccc(C(F)(F)F)c3)ccn2)c2cnccc21 (single isomer, unassigned) [Example 229, N-(2-{[1-(1-hydroxypropan-2-yl)-1H-pyrrolo[3,2-c]pyridin-3-yl]carbonyl}pyridin-4-yl)-2-[3-(trifluoromethyl)phenyl]acetamide] | 200 nM
3 | Cc1cc(C(F)(F)F)nn1CC(=O)Nc1cncc(C(=O)c2cn(C(C)(C)CO)c3c(F)cncc23)c1 [Example 1, N-{5-[7-Fluoro-1-(2-hydroxy-1,1-dimethyl-ethyl)-1H-pyrrolo[3,2-c]pyridine-3-carbonyl]-pyridin-3-yl}-2-(5-methyl-3-trifluoromethyl-pyrazol-1-yl)-acetamide] | 6.32 nM
4 | CC(C)(CO)n1cc(C(=O)c2cncc(NC(=O)Cn3ccc(C4CC4)n3)c2)c2cncc(F)c21 [Example 2, 2-(3-Cyclopropyl-pyrazol-1-yl)-N-{5-[7-fluoro-1-(2-hydroxy-1,1-dimethyl-ethyl)-1H-pyrrolo[3,2-c]pyridine-3-carbonyl]-pyridin-3-yl}-acetamide] | 5.58 nM
5 | CC(C)(CO)n1cc(C(=O)c2cncc(NC(=O)Cc3ccc(Cl)cn3)c2)c2cncc(F)c21 [Example 3, 2-(5-Chloro-pyridin-2-yl)-N-{5-[7-fluoro-1-(2-hydroxy-1,1-dimethyl-ethyl)-1H-pyrrolo[3,2-c]pyridine-3-carbonyl]-pyridin-3-yl}-acetamide] | 7.85 nM
6 | CC(C)(CO)n1cc(C(=O)c2cncc(NC(=O)Cn3cc(C(F)(F)F)cn3)c2)c2cncc(F)c21 [Example 4, N-{5-[7-Fluoro-1-(2-hydroxy-1,1-dimethyl-ethyl)-1H-pyrrolo[3,2-c]pyridine-3-carbonyl]-pyridin-3-yl}-2-(4-trifluoromethyl-pyrazol-1-yl)-acetamide] | 5.33 nM
7 | CC(C)(CO)n1cc(C(=O)c2cncc(NC(=O)Cc3cccc(C(F)(F)F)c3)c2)c2cncc(F)c21 [Example 5, N-{5-[7-Fluoro-1-(2-hydroxy-1,1-dimethyl-ethyl)-1H-pyrrolo[3,2-c]pyridine-3-carbonyl]-pyridin-3-yl}-2-(3-trifluoromethyl-phenyl)-acetamide] | 4.41 nM
8 | CC(C)(CO)n1cc(C(=O)c2cncc(NC(=O)Cc3ccc(C(F)(F)F)cc3)c2)c2cncc(F)c21 [Example 7, N-{5-[7-Fluoro-1-(2-hydroxy-1,1-dimethyl-ethyl)-1H-pyrrolo[3,2-c]pyridine-3-carbonyl]-pyridin-3-yl}-2-(4-trifluoromethyl-phenyl)-acetamide] | 6.61 nM
9 | CC(C)(CO)n1cc(C(=O)c2cncc(NC(=O)Cc3ccc(Cl)cn3)c2)c2cnccc21 [Example 8, 2-(5-Chloro-pyridin-2-yl)-N-{5-[1-(2-hydroxy-1,1-dimethyl-ethyl)-1H-pyrrolo[3,2-c]pyridine-3-carbonyl]-pyridin-3-yl}-acetamide] | 38.5 nM
10 | CC(C)(CO)n1cc(C(=O)c2cc(NC(=O)Cc3ccc(C#N)cc3)ccn2)c2cnccc21 [Example 9, 2-(4-cyanophenyl)-N-(2-{[1-(1-hydroxy-2-methylpropan-2-yl)-1H-pyrrolo[3,2-c]pyridin-3-yl]carbonyl}pyridin-4-yl)acetamide] | 97.8 nM
11 | CC(C)(CO)n1cc(C(=O)c2cc(NC(=O)Cn3ccc(C(F)(F)F)n3)ccn2)c2cnccc21 [Example 10, N-(2-{[1-(1-hydroxy-2-methylpropan-2-yl)-1H-pyrrolo[3,2-c]pyridin-3-yl]carbonyl}pyridin-4-yl)-2-[3-(trifluoromethyl)-1H-pyrazol-1-yl]acetamide] | 14 nM
12 | CC(C)(CO)n1cc(C(=O)c2cncc(NC(=O)Cn3cc(C(F)(F)F)nn3)c2)c2cnccc21 [Example 13, N-(5-{[1-(1-hydroxy-2-methylpropan-2-yl)-1H-pyrrolo[3,2-c]pyridin-3-yl]carbonyl}pyridin-3-yl)-2-[4-(trifluoromethyl)-1H-1,2,3-triazol-1-yl]acetamide] | 9.86 nM
13 | CC(C)c1cn(CC(=O)Nc2cncc(C(=O)c3cn(C(C)(C)CO)c4ccncc34)c2)nn1 [Example 14, N-(5-{[1-(1-hydroxy-2-methylpropan-2-yl)-1H-pyrrolo[3,2-c]pyridin-3-yl]carbonyl}pyridin-3-yl)-2-[4-(propan-2-yl)-1H-1,2,3-triazol-1-yl]acetamide] | 9.89 nM
14 | CC(C)(CO)n1cc(C(=O)c2cncc(NC(=O)Cc3ccc(F)cn3)c2)c2cnccc21 [Example 16, 2-(5-fluoropyridin-2-yl)-N-(5-{[1-(1-hydroxy-2-methylpropan-2-yl)-1H-pyrrolo[3,2-c]pyridin-3-yl]carbonyl}pyridin-3-yl)acetamide] | 18.2 nM
15 | Cc1oc(C2CC2)nc1CC(=O)Nc1cncc(C(=O)c2cn(C(C)C)c3ccncc23)c1 [Example 19, 2-(2-cyclopropyl-5-methyl-1,3-oxazol-4-yl)-N-(5-{[1-(propan-2-yl)-1H-pyrrolo[3,2-c]pyridin-3-yl]carbonyl}pyridin-3-yl)acetamide] | 26.4 nM
16 | CC(C)n1cc(C(=O)c2cncc(NC(=O)Cc3nc(C4CC4)oc3C3CC3)c2)c2cnccc21 [Example 20, 2-(2,5-dicyclopropyl-1,3-oxazol-4-yl)-N-(5-{[1-(propan-2-yl)-1H-pyrrolo[3,2-c]pyridin-3-yl]carbonyl}pyridin-3-yl)acetamide] | 31.7 nM
17 | CC(C)n1cc(C(=O)c2cncc(NC(=O)Cn3ccc(C(F)(F)F)n3)c2)c2cnccc21 [Example 21, N-(5-{[1-(propan-2-yl)-1H-pyrrolo[3,2-c]pyridin-3-yl]carbonyl}pyridin-3-yl)-2-[3-(trifluoromethyl)-1H-pyrazol-1-yl]acetamide] | 27.1 nM
18 | CC(C)n1cc(C(=O)c2cncc(NC(=O)Cc3ccc(Cl)cn3)c2)c2cnccc21 [Example 22, 2-(5-chloropyridin-2-yl)-N-(5-{[1-(propan-2-yl)-1H-pyrrolo[3,2-c]pyridin-3-yl]carbonyl}pyridin-3-yl)acetamide] | 9.64 nM
19 | CC(C)n1cc(C(=O)c2cncc(NC(=O)Cc3ccc(F)cn3)c2)c2cnccc21 [Example 23, 2-(5-fluoropyridin-2-yl)-N-(5-{[1-(propan-2-yl)-1H-pyrrolo[3,2-c]pyridin-3-yl]carbonyl}pyridin-3-yl)acetamide] | 192 nM
20 | Cc1nc(CC(=O)Nc2cncc(C(=O)c3cn(C(C)C)c4ccncc34)c2)c(C2CC2)o1 [Example 24, 2-(5-cyclopropyl-2-methyl-1,3-oxazol-4-yl)-N-(5-{[1-(propan-2-yl)-1H-pyrrolo[3,2-c]pyridin-3-yl]carbonyl}pyridin-3-yl)acetamide] | 124 nM
21 | Cc1cnn(CC(=O)Nc2cncc(C(=O)c3cn(C(C)C)c4ccncc34)c2)c1 [Example 25, 2-(4-methyl-1H-pyrazol-1-yl)-N-(5-{[1-(propan-2-yl)-1H-pyrrolo[3,2-c]pyridin-3-yl]carbonyl}pyridin-3-yl)acetamide] | 21.4 nM
22 | CC(C)n1cc(C(=O)c2cncc(NC(=O)Cn3ccc(C4CC4)n3)c2)c2cnccc21 [Example 26, 2-(3-cyclopropyl-1H-pyrazol-1-yl)-N-(5-{[1-(propan-2-yl)-1H-pyrrolo[3,2-c]pyridin-3-yl]carbonyl}pyridin-3-yl)acetamide] | 108 nM
